Results taken from PMC13541837, “High-yield production and functional analysis of novel rhizobial-type glutaminase-free L-asparaginase from Paenibacillus thiaminolyticus” (Folia Microbiologica, 2025).

Tests used:
[1] = biological target: T1, ASN339Pt iso 1 (Paenibacillus thiaminolyticus, UniProt A0AAP9J308); assay: ammonia release, Nessler's reagent, […] nm; modified substrate inhibition model (Eq. […], n = […]); type: biochemical; details: 100 mM Tris pH 9.0, 37 °C, 10 min (standard assay); L-asparagine 1.9-145 mmol L^-1; fit with substrate inhibition; read-out: Results (according to Eq. (2))
T1 construct: gene M5W83_23570; motifs RSSSKPVQAL and NCSGKHLGV; not isoenzyme 2 WP_087440700.1

[2] = biological target: T1, ASN339Pt iso 1; assay: as above; type: biochemical; details: 100 mM Tris pH 9.0, 37 °C, 10 min (standard assay); L-asparagine 1.9-145 mmol L^-1; fit with substrate inhibition; substrate inhibition constant, two additional substrate molecules (n = 2), active sit
[3] = biological target: L-asparaginase from Paenibacillus thiaminolyticus (isoenzyme 1) (Paenibacillus thiaminolyticus); assay: SEC; HiPrep 16/60 Sephacryl S-100 HR, flow rate 0.5 mL/min, 50 mM phosphate (K+) buffer pH 8.0; standards lysozyme (14 kDa), amylase (55 kDa), aldolase (160 kDa)

T1 sequence (A0AAP9J308 entry or part of it): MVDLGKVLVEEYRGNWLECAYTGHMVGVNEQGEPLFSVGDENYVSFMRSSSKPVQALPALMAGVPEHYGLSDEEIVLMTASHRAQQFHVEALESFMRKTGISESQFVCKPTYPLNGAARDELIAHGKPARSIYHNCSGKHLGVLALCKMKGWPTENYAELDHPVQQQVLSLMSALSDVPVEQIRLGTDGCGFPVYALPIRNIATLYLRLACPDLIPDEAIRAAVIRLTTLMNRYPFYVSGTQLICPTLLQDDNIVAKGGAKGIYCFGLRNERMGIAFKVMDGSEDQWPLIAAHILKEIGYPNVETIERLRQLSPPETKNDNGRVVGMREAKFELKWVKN

| Compound | Km [1] | Results (according to Eq. (2)) [2] | stoichiometry N [3] |
| --- | --- | --- | --- |
| NC(=O)C[C@H](N)C(=O)O [L-asparagine] | 26 ± 8 mM | 32 ± 5 mmol/L | – |
| L-asparaginase from Paenibacillus thiaminolyticus (isoenzyme 1) | – | – | 2 |
